PubChem BioAssay (NCI)
Values joined by “and” are separate entries in the source; they are usually repeats but may differ in a detail not shown here. Identical values can stand only once.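 All cell lines were grown in 96-well plates and treated with compound for 48 hours. The concentration for 50% growth inhibition is given as GI50. TGI is the concentration that stops growth completely.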

How the values were obtained:
Test in all cases: NCI tumour cell line growth inhibition, 48 h
[1] = tested on: IGROV1 ovarian
[2] = tested on: SNB-19 CNS
[3] = tested on: SNB-75 CNS
[4] = tested on: T-47D breast
[5] = tested on: SF-295 CNS
[6] = tested on: MALME-3M melanoma
[7] = tested on: SK-OV-3 ovarian
[8] = tested on: RPMI-8226 leukemia
[9] = tested on: M14 melanoma
[10] = tested on: SF-268 CNS
[11] = tested on: KM12 colon
[12] = tested on: RXF 393 renal
[13] = tested on: NCI-H226 lung
[14] = tested on: HCC-2998 colon
[15] = tested on: HT29 colon
[16] = tested on: NCI-H460 lung
[17] = tested on: NCI-H23 lung
[18] = tested on: 786-0 renal
[19] = tested on: SW-620 colon
[20] = tested on: HOP-92 NSCLC
[21] = tested on: UACC-62 melanoma
[22] = tested on: OVCAR-3 ovarian
[23] = tested on: SK-MEL-2 melanoma
[24] = tested on: HL-60(TB) leukemia
[25] = tested on: MCF7 breast
[26] = tested on: UACC-257 melanoma
[27] = tested on: SK-MEL-28 melanoma
[28] = tested on: MDA-MB-231 breast
[29] = tested on: SN12C renal
[30] = tested on: MDA-MB-435
[31] = tested on: A549 NSCLC
[32] = tested on: CCRF-CEM leukemia
[33] = tested on: OVCAR-4 ovarian
[34] = tested on: OVCAR-8 ovarian
[35] = tested on: ACHN renal
[36] = tested on: SR leukemia
[37] = tested on: SF-539 CNS
[38] = tested on: K-562 leukemia
[39] = tested on: BT-549 breast
[40] = tested on: OVCAR-5 ovarian
[41] = tested on: PC-3 prostate
[42] = tested on: HS 578T breast
[43] = tested on: CAKI-1 renal
[44] = tested on: MOLT-4 leukemia
[45] = tested on: U251 CNS
[46] = tested on: NCI/ADR-RES ovarian
[47] = tested on: DU-145 prostate
[48] = tested on: COLO 205 colon
[49] = tested on: HOP-62 NSCLC
[50] = tested on: NCI-H522 lung
[51] = tested on: UO-31 renal
[52] = tested on: HCT-116 colon
[53] = tested on: A498 renal
[54] = tested on: LOX IMVI melanoma
[55] = tested on: SK-MEL-5 melanoma
[56] = tested on: TK-10 renal
[57] = tested on: EKVX NSCLC
[58] = tested on: HCT-15 colon

COc1cc2c(Nc3ccc(Cl)c(Cl)c3F)ncnc2cc1OCC1C[C@@H]2CN(C)C[C@@H]2C1 (stereo not given in full)
GI50 [1]: 112 nM and 28.4 nM and 50.7 nM
TGI [1]: 1950 nM and 791 nM and 1440 nM
GI50 [2]: 2170 nM and 2390 nM and 2040 nM
TGI [2]: 8760 nM and > 6910 nM and 7070 nM
GI50 [3]: 406 nM and 430 nM and 822 nM
TGI [3]: 2030 nM and 5860 nM
GI50 [4]: 465 nM and 363 nM and 330 nM
TGI [4]: 6560 nM and > 10000 nM and 10200 nM
GI50 [5]: 1610 nM and 1540 nM and 1460 nM
TGI [5]: 3410 nM and 3260 nM and 3310 nM
GI50 [6]: 1790 nM and 1580 nM
TGI [6]: 4250 nM and 3540 nM and 3630 nM
GI50 [7]: 234 nM and 241 nM and 195 nM
TGI [7]: 902 nM and 1510 nM and 865 nM
GI50 [8]: 1980 nM and 1490 nM and 1930 nM
TGI [8]: 4950 nM and 4290 nM and 5970 nM
GI50 [9]: 1770 nM and 1670 nM and 1820 nM
TGI [9]: 3500 nM and 3530 nM and 3770 nM
GI50 [10]: 1250 nM and 951 nM and 1290 nM
TGI [10]: 4310 nM and > 4820 nM and 7740 nM
GI50 [11]: 2940 nM and 3500 nM and 3850 nM
TGI [11]: 9030 nM and > 10000 nM and 15700 nM
GI50 [12]: 808 nM and 690 nM and 846 nM
TGI [12]: 2360 nM and 2410 nM and 2510 nM
GI50 [13]: 3050 nM and > 4500 nM and 2170 nM
TGI [13]: 15100 nM and > 10000 nM and 14700 nM
GI50 [14]: 2370 nM and 1410 nM and 1820 nM
TGI [14]: 7100 nM and > 5780 nM and 5030 nM
GI50 [15]: 695 nM and 759 nM and 621 nM
TGI [15]: 4620 nM and 5860 nM and 4380 nM
GI50 [16]: 2660 nM and 2730 nM and 3350 nM
TGI [16]: 9160 nM and > 10000 nM and 13500 nM
GI50 [17]: 1980 nM and 2100 nM
TGI [17]: 7010 nM and > 6380 nM and 9220 nM
GI50 [18]: 1110 nM and 1060 nM and 1030 nM
TGI [18]: 2580 nM and 2900 nM and 2850 nM
GI50 [19]: 1600 nM and 1460 nM and 1720 nM
TGI [19]: 3560 nM and 4060 nM and 5060 nM
GI50 [20]: 247 nM and 195 nM and 1500 nM
TGI [20]: 1850 nM and 1800 nM and 6780 nM
GI50 [21]: 1910 nM and 1540 nM and 1880 nM
TGI [21]: 4150 nM and 3800 nM and 4410 nM
GI50 [22]: 1010 nM and 422 nM and 1790 nM
TGI [22]: 8180 nM and > 9270 nM and 14700 nM
GI50 [23]: 2320 nM and 1920 nM and 2050 nM
TGI [23]: 4830 nM and 4010 nM and 4470 nM
GI50 [24]: 2310 nM and 1990 nM and 2430 nM
TGI [24]: 5720 nM and 4730 nM and 5730 nM
GI50 [25]: 806 nM and 1190 nM and 1520 nM
TGI [25]: 6370 nM and > 6900 nM and 8050 nM
GI50 [26]: 1760 nM and 1680 nM and 1950 nM
TGI [26]: 3640 nM and 3570 nM and 4050 nM
GI50 [27]: 1600 nM and 1570 nM and 1830 nM
TGI [27]: 3330 nM and 3220 nM and 4150 nM
GI50 [28]: 1410 nM and 1120 nM and 1500 nM
TGI [28]: 4300 nM and 3020 nM and 4880 nM
GI50 [29]: 703 nM and 548 nM and 1050 nM
TGI [29]: 12600 nM and > 10000 nM and 12200 nM
GI50 [30]: 1570 nM and 1780 nM and 1850 nM
TGI [30]: 3050 nM and 3900 nM and 4290 nM
GI50 [31]: 1230 nM and 1350 nM and 1280 nM
TGI [31]: 4050 nM and > 5680 nM and 7930 nM
TGI [32]: 7560 nM and 1240 nM and 10500 nM
GI50 [33]: 1580 nM and 1690 nM and 1750 nM
TGI [33]: 13400 nM and > 10000 nM and 14000 nM
GI50 [34]: 2060 nM and 2090 nM and 2430 nM
TGI [34]: 13800 nM and > 10000 nM and 13600 nM
GI50 [35]: 46.8 nM and 51.2 nM and 55.3 nM
TGI [35]: 3480 nM and > 7360 nM and 5740 nM
GI50 [36]: 2060 nM and 2090 nM and 1920 nM
TGI [36]: 5490 nM and 5210 nM and 5390 nM
GI50 [37]: 1470 nM and 1480 nM and 1580 nM
TGI [37]: 3000 nM and 3010 nM and 3360 nM
GI50 [38]: 240 nM and 114 nM and 170 nM
TGI [38]: 2690 nM and > 7770 nM and 3140 nM
GI50 [39]: 4680 nM and 3760 nM and 2390 nM
TGI [39]: 13700 nM and > 10000 nM and 7660 nM
GI50 [40]: 247 nM and 532 nM and 646 nM
TGI [40]: 5350 nM and > 10000 nM and 13600 nM
GI50 [41]: 1530 nM and 1360 nM and 2120 nM
TGI [41]: 11600 nM and > 9560 nM and 8990 nM
GI50 [42]: 1130 nM and 1400 nM and 1540 nM
TGI [42]: 4670 nM and 5450 nM and 5830 nM
GI50 [43]: 219 nM and 511 nM and 206 nM
TGI [43]: 2750 nM and 2360 nM and 2320 nM
GI50 [44]: 2180 nM and 1860 nM and 2230 nM
TGI [44]: 7030 nM and 7850 nM and 8670 nM
GI50 [45]: 1520 nM and 1800 nM and 2300 nM
TGI [45]: 3410 nM and 4430 nM and 6600 nM
GI50 [46]: 1730 nM and 1570 nM and 1220 nM
TGI [46]: 9930 nM and > 9380 nM and 7350 nM
GI50 [47]: 751 nM and 532 nM and 673 nM
TGI [47]: 13600 nM and > 10000 nM and 13500 nM
GI50 [48]: 1810 nM and 1830 nM and 1720 nM
TGI [48]: 3470 nM and 4320 nM and 3930 nM
GI50 [49]: 1080 nM and 1000 nM and 1520 nM
TGI [49]: 4170 nM and > 4900 nM and 5750 nM
GI50 [50]: 304 nM and 75.2 nM and 640 nM
TGI [50]: 2530 nM and 1660 nM and 3100 nM
GI50 [51]: 171 nM and 101 nM and 177 nM
TGI [51]: 1930 nM and 1610 nM and 1870 nM
GI50 [52]: 2210 nM and 1590 nM and 1820 nM
TGI [52]: 10900 nM and > 8580 nM and 9060 nM
GI50 [53]: 186 nM and 433 nM and 278 nM
TGI [53]: 1490 nM and 2030 nM and 2050 nM
GI50 [54]: 953 nM and 1180 nM
TGI [54]: 2310 nM and 2490 nM and 2460 nM
GI50 [55]: 1610 nM and 1550 nM and 1570 nM
TGI [55]: 3010 nM and 2930 nM and 2940 nM
GI50 [56]: 109 nM and 30.2 nM and 47.2 nM
TGI [56]: 1760 nM and 1410 nM and 1450 nM
GI50 [57]: 33 nM and 101 nM
TGI [57]: > 6550 nM and 15200 nM
GI50 [58]: 1140 nM and 1250 nM and 1130 nM
TGI [58]: 3700 nM and 5420 nM and 4510 nM
